Consider one compound from patent publication EP4574835A1, “AMORPHOUS FORM OF KETOAMIDE DERIVATIVE, AND PREPARATION METHOD THEREFOR” (Guangdong Raynovent Biotech Co., Ltd., priority 2022, dated 2024).

This series can be described thus: Pharmacokinetic model of mouse. Type of series: in vivo.

`O=C(NC1CCCC1)C(=O)[C@H](C[C@@H]1CCNC1=O)NC(=O)[C@@H]1[C@H]2CCC[C@H]2CN1C(=O)[C@@H](NC(=O)C(F)(F)F)C1CCCCC1` [Compound of Formula (I)]: the clearance rate entry is recorded as “lower” and the half-life result is listed as “longer”.
